pIC50: −log10 of the molar value.

In this assay the target is T1, recombinant human mPGES-1 (Homo sapiens, UniProt O14684).
T1 construct: made in house; host or cells: Rosetta E. coli (membrane/microsome fraction)
T1 sequence (O14684 1-152): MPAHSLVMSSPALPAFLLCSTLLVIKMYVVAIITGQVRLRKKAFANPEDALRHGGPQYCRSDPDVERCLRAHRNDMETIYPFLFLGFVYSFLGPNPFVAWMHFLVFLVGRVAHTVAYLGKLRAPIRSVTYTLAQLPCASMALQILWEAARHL
Kind of assay: Assay B: mPGES-1 enzyme assay (modified). In kind it is biochemical. Particulars: biological assay B (modified); PGH2 final conc. 2 μM; read-out: mPGES-1 inhibitory effect IC50. The method, then: Assay B: mPGES-1 Enzyme Assay (Modified)
Microsomes from Rosetta E. coli bacteria expressing recombinant human mPGES-1 can be derived as described below:
Inoculate 5 ml LB with Ampicilin (50 μg/ml) and Chloramphenicol (34 μg/ml) with bacteria from freeze culture. Incubate 8 h at 37° C. with 200 rpm. Thereafter, inoculate 500-1000 ml LB containing Ampicilin and Chloramphenicol with the 5 ml on culture and grow to OD640 of 0.8-1.0. Chill the culture to +4° C. before induction. Induce the culture with IPTG at a final concentration of 400 μM. Express the protein at room temp 18-23° C. with 200 rpm shaking overnight.
The following steps can be performed on the following day: • 1. Spin down the cells in 250 ml centrifuge flasks for 15 min at 7000 rpm (Beckmann Coulte Avanti J-E centrifuge) • 2. Dissolve the pellet from 250 ml culture in 12.5 ml homogenization buffer • 3. (15 mM Tris-HCL pH8, 1 mM EDTA pH8, […], 2.5 mM GSH, 1 Tablet Protease inhibitor per 50 ml buffer) • 4. Disintegrate the cells by sonication, 5×10 seconds at 48% amplitude of a 750 W sonifier • 5. Add 2.5 ml MgCl2 (100 mM) and DNase 12.5 μl (0.8 mg/ml) and incubate on ice for 30 min • 6. Spin down the bacteria debris and save the supernatant, 7000 rpm for 15 min • 7. Isolate the protein containing membranes in the supernatant by ultracentrifugation 120000×g for 2 hour at 4° C. (Sorvall T880 rotor). • 8. Discard the supernatant and dissolve the pellet in 20 mM Potassium phosphate buffer pH7.4 (KH2PO4 and K2HPO4) buffer by sonication (5×10 s, 30% of a 50 W sonifier) and aliquot the enzyme and store aliquots at −80° C.
Before each experiment is performed an aliquot of the enzyme is thawed and it can then be dissolved in 0.1 M Potassium phosphate buffer pH7.4 (KH2PO4 and K2HPO4) buffer containing 2.5 mM GSH.
The aim of this assay is to determine the affinity of a test compound for the mPGES-1 enzyme.
47 μl of recombinant human mPGES-1 (˜0.5 μg protein/well) containing microsomal suspension in a buffer containing GSH, (2.5 mmol/L L-Glutathione reduced, dissolved in 0.1 mol/L Phosphat Buffer pH 7.4) is dispensed in a 384-well plate and thereafter 1 μl of the test compound(s) is/are added and incubated for 25 minutes at room temperature. The enzyme reaction is started by the addition of 2 ul PGH2 (final conc. 2 μM) dissolved in water-free Diglyme. After 60 seconds the reaction is terminated by addition of a stop solution containing FeCl2 (10 μL 0.074 mol/l FeCl2). The samples are diluted between 1:25 in PBS (Phosphate Buffered Saline). 10 μl of the diluted samples are transferred to 384-well low volume plate. In order to quantify the amount of PGE2 that has been formed, a homogenous time resolved fluorescent (HTRF) detecting of PGE2 has been performed using a commercially available kit from Cisbio according to the manufactures recommendation. This HTRF-based assay has been described in detail (see: Goedken et al., J Biomol Screen, 2008, 13(7), 619-625). Briefly, the diluted samples are mixed with 5 μl PGE2-d2 conjungate and 5 μl anti-PGE2 cryptate conjungate. After an incubation period of the plates overnight, the fluorescence is measured by the use of an appropriate microplate reader.
The fluorescence of Europium cryptate (maxex=307 nm, maxem=620 nm) and d2-PGE2 (maxex=620 nm, maxem=665 nm) are measured.
The extent of the specific HTRF is measured as a ratio of the emission intensity at 665 nm vs. that at 620 nm at an excitation puls of 320 nm. The quantification plate contains also wells with different concentrations of PGE2 as calibration curve for the calculation of the PGE2 concentrations from the HTRF ratio values.
From all mPGES enzyme assay the background is subtracted and the IC50 is calculated over a nonlinear regression with conventional software.
The pIC50 is the negative decadic logarithm of the IC50, by convention in mol/L. In the case of `Cn1c(Nc2cc(CNC(=O)C(C)(C)C)ccc2Cl)nc2cc(N3CCC(C(F)(F)F)CC3)ccc21` [Example 12], the negative-log IC50 (pIC50) was 6.76. On to `Cn1c(Nc2c(Cl)ccc(CNC(=O)C(C)(C)C)c2F)nc2cc(Cl)c(N3CCC(F)CC3)cc21` [Example 33, N-{2-Fluoro-4-chloro-3-[5-chloro-1-methyl-6-(4-fluoro-piperidin-1-yl)-1H-benzimidazol-2-ylamino]-benzyl}-2,2-dimethyl-propionamide], for which the pIC50 is 8.52. The value for `CN(CC(C)(C)O)c1cc2c(cc1Cl)nc(Nc1c(Cl)ccc(CNC(=O)C(C)(C)C)c1F)n2C` [Example 37] was 8.11; that for `CC(C)(C)C(=O)NCc1ccc(Cl)c(Nc2nc3cc(Cl)c(N4CCC(C(F)(F)F)CC4)cc3[nH]2)c1Cl` [Example 40, N-{2,4-Dichloro-3-[5-chloro-6-(4-trifluoromethyl-piperidin-1-yl)-1H-benzimidazol-2-ylamino]-benzyl}-2,2-dimethyl-propionamide] was 8.24; that for `CC(C)(C)C(=O)NCc1ccc(Cl)c(Nc2nc3cc(Cl)c(N4CCC(F)CC4)cc3[nH]2)c1F` [Example 48] was 8.05. The value for `Cn1c(Nc2c(Cl)ccc(CNC(=O)OC(C)(C)C)c2Cl)nc2cc(Cl)c(N3CCCC(C(F)(F)F)C3)cc21` (stereo not drawn) [Example 51] was 7.64; that for `CC(C)(C)C(=O)NCc1ccc(Cl)c(Nc2nc3cc(Cl)c(N4CCCC(C(F)(F)F)C4)cc3[nH]2)c1Cl` (stereo not drawn) [Example 52] was 8.66.

For `Cn1c(Nc2c(Cl)ccc(CNC(=O)C(C)(C)C)c2Cl)nc2cc(Cl)c(N3CCCC(C(F)(F)F)C3)cc21` (stereo not drawn) [Example 53], the pIC50 was 8.46. `Cn1c(Nc2c(Cl)ccc(CNC(=O)C(C)(C)C)c2Cl)nc2cc(Cl)c(N3CCC(C(F)(F)F)C3)cc21` (stereo not drawn) [Example 59]: the pIC50 is 8.70. The value for `CC(C)(C)C(=O)NCc1ccc(Cl)c(Nc2nc3cc(C(F)(F)F)c(N4CCC(C(F)(F)F)CC4)cc3[nH]2)c1Cl` [Example 61, N-{2,4-Dichloro-3-[5-trifluoromethyl-6-(4-trifluoromethyl-piperidin-1-yl)-1H-benzimidazol-2-ylamino]benzyl}-2,2-dimethyl-propionamide] was 8.30; that for `Cn1c(Nc2c(F)ccc(CNC(=O)C(C)(C)C)c2F)nc2cc(Cl)c(N3CCC(C(F)(F)F)CC3)cc21` [Example 70, N-{2,4-Difluoro-3-[5-chloro-1-methyl-6-(4-trifluoromethyl-piperidin-1-yl)-1H-benzimidazol-2-ylamino]-benzyl}-2,2-dimethyl-propionamide] was 8.19; that for `Cn1c(Nc2cc(CNC(=O)C3(C(F)(F)F)CC3)ccc2Cl)nc2cc(Cl)c(N3CCN(CC(F)(F)F)CC3)cc21` [Example 92] was 7.41.

With `Cn1c(Nc2cc(CNC(=O)C(C)(C)C(F)(F)F)ccc2Cl)nc2cc(Cl)c(N3CCC(c4ccccc4)CC3)cc21` [Example 97], the pIC50 was 8.51. For `Cn1c(Nc2cc(CNC(=O)C(C)(C)C(F)(F)F)ccc2Cl)nc2cc(Cl)c(N3CCN(c4ccc(C(F)(F)F)cc4)CC3)cc21` [Example 98] the value was 8.19; for `CC(C)(C)C(=O)NCc1ccc(Cl)c(Nc2nc3cc(C#N)c(N4CCC(C(F)(F)F)CC4)cc3[nH]2)c1Cl` [Example 131], 8.30.
